# Data reported in patent US20250049931A1, “POLYSARCOSINE-VITAMIN E DERIVATIVES” (POLYPEPTIDE THERAPEUTIC SOLUTIONS, S.L., priority 2021, published 2025).
# What was measured:
# [1] = Skin permeation studies by Franz diffusion cells; assay type: in vitro ADME, human; conditions: TPGS-Dil and TPSS-Dil micelles 10 mg/mL, 8 h
# Procedure: Breast skin samples were obtained from healthy women undergoing plastic surgery after written informed consent (kindly donated by Hospital la Fe, Valencia, Spain). Immediately after excision, the subcutaneous fatty tissue was carefully removed using a scalpel. The skin was cut into 4 cm^2 pieces, wrapped in aluminum foil and stored at −20° C. until use. To reduce inter-individual variability and afford a better comparison of results, skin from only one donor was used in all experiments. Before starting each experiment, the skin was allowed to equilibrate at room temperature (r.t.).
# Permeation studies employed the modified Franz diffusion cells (Logan Instruments Corp., EE. UU) with a diffusional area of 0.95 cm^2. […]
# Finally, the samples were placed in the optimum cutting temperature (OCT) inclusion medium, and slides of 5 μm were generated via cryostat (version CM1850 UV, Leica, Germany) and samples were analyzed by confocal microscopy.
# Images were captured with an inverted DM IRE2 microscope equipped with a λ-blue 40× oil immersion objective and handled with a TCS SP2 system, equipped with an Acoustic Optical Beam Splitter (AOBS). […] Control tissue that follows the same incubation time with MilliQ water was also analyzed to establish the autofluorescence. Dil intensity was quantified five times per sample using Image J software.
# [2] = test system: human fibroblasts; assay: Cell viability by MTS assay, fibroblasts; assay type: cell-based; conditions: 72 h, 0.1 to 2.57 μg/mL equivalents of Vitamin E
# [3] = test system: HaCaT cells; assay: Cell viability by MTS assay, HaCaT; assay type: cell-based, human; conditions: 72 h, 0.1 to 2.57 μg/mL equivalents of Vitamin E
SMILES,Dil found in the receptor chamber [1],cytotoxic effect (cell viability by MTS) [2],cytotoxic effect (cell viability by MTS) [3]
"CCCCCCCCCCCCCCCCCCN1C(=CC=CC2=[N+](CCCCCCCCCCCCCCCCCC)c3ccccc3C2(C)C)C(C)(C)c2ccccc21.[O-][Cl+3]([O-])([O-])[O-] [Dil, 1,1′-dioctadecyl-3,3,3′,3′-tetramethylindocarbocyanine perchlorate]",any Dil was found in the receptor chamber,–,–
"Cc1c(C)c2c(c(C)c1O)CC[C@@](C)(CCC[C@H](C)CCC[C@H](C)CCCC(C)C)O2 [Vitamin E, α-tocopherol]",–,no cytotoxic effect,no cytotoxic effect
